Laboratory results published in patent US7618697B2, “Carboxylic acid esters of zosteric acid for prevention of biofouling” (Ciba Specialty Chemicals Corporation, priority 2005, dated 2009).

test system: Staphyloccus aureus; experiment: Microbial antiadhesion assay on coated PMMA test pins; type: cell-based; conditions: adhering microbes as percent of control pins (acrylate film former only = 100%), test concentration 0.50% in Glascol LS26 acrylate film former, 60 min in S. aureus suspension, immunological detection
Protocol: Microbial Antiadhesion Assay
According to the method of Nature Medicine Vol. 6, No. 8, 1053-1056, Zosterate esters are dissolved in a solution containing an acrylate polymeric film former (Glascol LS26, 4.6% active). Test pins made of PMMA are dipped into the solutions, incubated for 20 minutes and allowed to dry. The test pins are incubated in a suspension of Staphyloccus aureus for 60 min, then rinsed with PBS buffer. The microbial cells adhering to the pin are detected in an immunological assay using specific antibodies against the test strain which are then detected […]. The results are reported as a percent relative to the control pins (treated with acrylate film former only), a value of 100% represents the value observed on the control pins; a value of 42% represents a 0.42× the amount of microbes found on the pins treated with acrylate film former only.

SMILES	Results on PMMA Based on Control [%]
COC(=O)/C=C/c1ccc(OS(=O)(=O)O)cc1 [Methyl zosterate, Methyl Zosterate]	28
CCC(C)OC(=O)/C=C/c1ccc(OS(=O)(=O)O)cc1 (stereo not drawn) [2-Butyl zosterate]	42
CCCCOC(=O)/C=C/c1ccc(OS(=O)(=O)O)cc1 [1-Butyl zosterate]	70
